Assay results taken from ChEMBL document CHEMBL5126506, “Coumarin-benzimidazole hybrids: A review of developments in medicinal chemistry” (Eur J Med Chem, 2022).

Columns and labels:
[1] = system: MCF7; assay: Anticancer activity against human MCF7 cells assessed as cell growth inhibition measured after 48 hrs by sulforhodamine B staining based analysis; format: functional
[2] = system: NCI-H460; assay: Anticancer activity against human NCI-H460 cells assessed as cell growth inhibition measured after 48 hrs by sulforhodamine B staining based analysis; format: functional
[3] = Cytotoxicity against human WI-38 cells assessed as cell growth inhibition measured after 48 hrs by sulforhodamine B staining based analysis; format: toxicity
[4] = system: SF-268; assay: Anticancer activity against human SF-268 cells assessed as cell growth inhibition measured after 48 hrs by sulforhodamine B staining based analysis; format: functional
[5] = Antioxidant activity assessed as DPPH radical scavenging activity incubated for 30 mins in dark condition by spectrophotometrical analysis; format: functional
[6] = molecular target: Carbonic anhydrase 1 (Homo sapiens, UniProt P00915); assay: Inhibition of human carbonic anhydrase-1 by stopped flow CO2 hydrase assay
Carbonic anhydrase 1, sequence (P00915 whole entry): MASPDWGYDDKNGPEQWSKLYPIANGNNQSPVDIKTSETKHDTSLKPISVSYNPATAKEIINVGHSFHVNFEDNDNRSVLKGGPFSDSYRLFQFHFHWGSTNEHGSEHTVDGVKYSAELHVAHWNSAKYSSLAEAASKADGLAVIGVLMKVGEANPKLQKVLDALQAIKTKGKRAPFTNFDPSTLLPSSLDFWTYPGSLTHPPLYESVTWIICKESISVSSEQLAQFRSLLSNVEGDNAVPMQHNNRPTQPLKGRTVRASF

[7] = molecular target: Carbonic anhydrase 2 (Homo sapiens, UniProt P00918); assay: Inhibition of human carbonic anhydrase-2 by stopped flow CO2 hydrase assay
[8] = system: Hepatitis C virus; assay: Antiviral activity against HCV GT-1b infected in human Huh-5-2 cells carrying HCV subgenomic replicons assessed as inhibition of viral replication by quantitative RT-PCR assay; format: functional, organism-based, Hepacivirus hominis; conditions: subtype 1b
[9] = system: Rattus norvegicus; assay: Antiinflammatory activity in formalin induced fasted albino rat paw oedema model assessed as inhibition of paw oedema at 100 mg/kg, po measured after 4 hrs by plethysmograph analysis relative to control; format: functional; set-up: scale not given: the % may be the effect or the level left
[10] = system: Aspergillus terreus; assay: Antifungal activity against Aspergillus terreus assessed as zone of inhibition at 1000 ug/ml measured after 24 hrs by cup plate method; format: functional; conditions: read-out: DIZ
[11] = system: Aspergillus niger; assay: Antifungal activity against Aspergillus niger assessed as zone of inhibition at 1000 ug/ml measured after 24 hrs by cup plate method; format: functional; conditions: read-out: DIZ
[12] = system: Aspergillus flavus; assay: Antifungal activity against Aspergillus flavus assessed as zone of inhibition at 1000 ug/ml measured after 24 hrs by cup plate method; format: functional; conditions: read-out: DIZ
[13] = system: Bacillus subtilis; assay: Antibacterial activity against Bacillus subtilis assessed as zone of inhibition at 1000 ug/ml measured after 24 hrs by cup plate method; format: functional; conditions: read-out: DIZ
[14] = system: Staphylococcus aureus; assay: Antibacterial activity against Staphylococcus aureus assessed as zone of inhibition at 1000 ug/ml measured after 24 hrs by cup plate method; format: functional; conditions: read-out: DIZ
[15] = system: Escherichia coli; assay: Antibacterial activity against Escherichia coli assessed as zone of inhibition at 1000 ug/ml measured after 24 hrs by cup plate method; format: functional; conditions: read-out: DIZ
[16] = system: Pseudomonas aeruginosa; assay: Antibacterial activity against Pseudomonas aeruginosa assessed as zone of inhibition at 1000 ug/ml measured after 24 hrs by cup plate method; format: functional; conditions: read-out: DIZ
[17] = system: Shigella dysenteriae; assay: Antibacterial activity against Shigella dysenteriae ATCC 49345 assessed as bacterial growth inhibition at 50 ug/ml incubated for 24 hrs relative to control; format: functional; set-up: scale not given: the % may be the effect or the level left; conditions: dose 50 µg/ml
[18] = system: Salmonella typhi; assay: Antibacterial activity against Salmonella typhi ATCC 11778 assessed as bacterial growth inhibition at 50 ug/ml incubated for 24 hrs relative to control; format: functional, Salmonella enterica subsp. enterica serovar Typhi; set-up: scale not given: the % may be the effect or the level left; conditions: dose 50 µg/ml

Cc1cn2c3ccccc3nc2c2c(=O)oc3ccccc3c12
GI50 [1]: 26.6 µM
GI50 [2]: 29.3 µM
GI50 at 48 h [3]: 68.2 µM
GI50 [4]: 18.4 µM

Cc1cc(C(C)(C)C)c(O)c(C(C)(C)C)c1 [BUTYLATED HYDROXYTOLUENE]
EC50 [5]: 23.4 µM

O=c1cc(C[n+]2cn(Cc3ccc4ccccc4c3)c3ccccc32)c2ccc(O)c(O)c2o1
IC50 [6]: 4.99 µM
IC50 [7]: 6.01 µM

CC(=O)OC[C@H]1O[C@@H](n2c(SCc3cc4ccccc4oc3=O)nc3cc(Cl)c(Cl)cc32)[C@H](OC(C)=O)[C@@H](OC(C)=O)[C@@H]1OC(C)=O
EC50 [8]: 3.1 µM

O=c1oc2ccc(Br)cc2cc1CSc1nc2cc(F)ccc2[nH]1
EC50 [8]: 3.4 µM

O=c1oc2ccccc2cc1-c1nc2ccccc2n1C(=S)Nc1ccccc1
GI50 [1]: 0.08 µM
GI50 [2]: 0.05 µM
GI50 at 48 h [3]: 28 µM
GI50 [4]: 0.06 µM

Cc1c(/C=N/Nc2nc3ccccc3[nH]2)c(=O)oc2cc(O)ccc12
Activity [9]: 37%
zone of inhibition at 1000 µg/mL [10]: 13 mm
zone of inhibition at 1000 µg/mL [11]: 13 mm
zone of inhibition at 1000 µg/mL [12]: 13 mm
zone of inhibition at 1000 µg/mL [13]: 13 mm
zone of inhibition at 1000 µg/mL [14]: 13 mm
zone of inhibition at 1000 µg/mL [15]: 13 mm
zone of inhibition at 1000 µg/mL [16]: 13 mm

O=c1cc(Cc2nc3ccccc3[nH]2)c2cccc([N+](=O)[O-])c2o1
EC50 [5]: 0.17 µM

O=c1cc(Cn2c[n+](CCCCCn3c[n+](Cc4cc(=O)oc5cc(O)ccc45)c4ccccc43)c3ccccc32)c2ccc(O)cc2o1
IC50 [6]: 99 µM
IC50 [7]: 89 µM

CC(=O)OC[C@H]1O[C@@H](n2c(SCc3cc4cc(Br)ccc4oc3=O)nc3ccccc32)[C@H](OC(C)=O)[C@@H](OC(C)=O)[C@@H]1OC(C)=O
EC50 [8]: 4.1 µM

Cc1c(C2SCC(=O)N2Nc2nc3ccccc3[nH]2)c(=O)oc2cc(O)ccc12 (stereo not given)
Activity [9]: 20%
zone of inhibition at 1000 µg/mL [10]: 13 mm
zone of inhibition at 1000 µg/mL [11]: 13 mm
zone of inhibition at 1000 µg/mL [12]: 13 mm
zone of inhibition at 1000 µg/mL [13]: 13 mm
zone of inhibition at 1000 µg/mL [14]: 13 mm
zone of inhibition at 1000 µg/mL [15]: 13 mm
zone of inhibition at 1000 µg/mL [16]: 13 mm

O=c1oc2ccccc2c2c(O)cn3c4ccccc4nc3c12
GI50 [1]: 24.1 µM
GI50 [2]: 30.8 µM
GI50 at 48 h [3]: 25.2 µM
GI50 [4]: 26.1 µM

O=c1cc(C[n+]2cn(Cc3ccc4ccccc4c3)c3ccccc32)c2ccc(O)cc2o1
IC50 [6]: 5.34 µM
IC50 [7]: 6.01 µM

COc1cccc2cc(CSc3nc4cc(Cl)c(Cl)cc4[nH]3)c(=O)oc12
EC50 [8]: 3.6 µM

O=C1O[C@H]([C@@H](O)CO)C(O)=C1O [ASCORBIC ACID]
EC50 [5]: 0.03 µM

CC(=O)n1c(-c2cc3ccccc3oc2=O)nc2ccccc21
GI50 [1]: 22.7 µM
GI50 [2]: 36.5 µM
GI50 at 48 h [3]: > 100 µM
GI50 [4]: 31.5 µM

O=c1oc2ccc(Cl)cc2cc1CSc1nc2ccc([N+](=O)[O-])cc2[nH]1
Activity [17]: 100%
Activity [18]: 100%

Cc1ccc2nc(SCc3cc4ccccc4oc3=O)[nH]c2c1
Activity [17]: 100%
Activity [18]: 100%

O=c1oc2ccc(Br)cc2cc1CSc1nc2ccccc2[nH]1
EC50 [8]: 4 µM
Activity [17]: 100%
Activity [18]: 100%

O=C(Cc1cc(=O)oc2c([N+](=O)[O-])cccc12)Nc1nc2ccccc2[nH]1
EC50 [5]: 0.08 µM

O=c1oc2cc(O)ccc2cc1/C=N/Nc1nc2ccccc2[nH]1
Activity [9]: 39%
zone of inhibition at 1000 µg/mL [10]: 13 mm
zone of inhibition at 1000 µg/mL [11]: 13 mm
zone of inhibition at 1000 µg/mL [12]: 13 mm
zone of inhibition at 1000 µg/mL [13]: 13 mm
zone of inhibition at 1000 µg/mL [14]: 13 mm
zone of inhibition at 1000 µg/mL [15]: 13 mm
zone of inhibition at 1000 µg/mL [16]: 13 mm

O=c1oc2ccccc2c2cc(O)n3c4ccccc4nc3c12
GI50 [1]: 44 µM
GI50 [2]: 29 µM
GI50 at 48 h [3]: 28.2 µM
GI50 [4]: 20.6 µM

O=C1CSC(c2cc3ccc(O)cc3oc2=O)N1Nc1nc2ccccc2[nH]1 (stereo not given)
Activity [9]: 48%
zone of inhibition at 1000 µg/mL [10]: 13 mm
zone of inhibition at 1000 µg/mL [11]: 13 mm
zone of inhibition at 1000 µg/mL [12]: 13 mm
zone of inhibition at 1000 µg/mL [13]: 13 mm
zone of inhibition at 1000 µg/mL [14]: 13 mm
zone of inhibition at 1000 µg/mL [15]: 13 mm
zone of inhibition at 1000 µg/mL [16]: 13 mm

O=c1oc2ccccc2cc1CSc1nc2ccccc2[nH]1
Activity [17]: 100%
Activity [18]: 100%
